This note sets out measurements from patent US20050261171A1, “Combination cancer therapy” (Pharmacyclics, Inc., priority 2001, published 2005).

Read-outs that look alike come from different tables or passages of the source.

Test [1] deals with murine Lewis lung carcinoma cell line (LLC1). As to the kind of experiment: BCNU and MGd, tumor regrowth delay in subcutaneous Lewis lung carcinoma model. Format: in vivo, Female C57BL mice. Conditions: control group 11.45 days.
The test system is the same in test [2]. As to the kind of experiment: Taxol and MGd, tumor regrowth delay in subcutaneous Lewis lung carcinoma model. Type of test: in vivo, Female C57BL mice. As to conditions: control group 11.40 days.
For test [3] the test system is unchanged. Format: in vivo, Female C57BL mice. As to conditions: control group 12.11 days.
The test system of another test is murine Lewis lung cancer. As to the kind of experiment: Carboplatin and MGd, murine Lewis lung cancer in C57 mice. Conditions: Group #2: 20 μmol/kg MGd on day 7 post tumor inoculation; control group 12.14 days. Type of test: in vivo.

For `O=NN(CCCl)C(=O)NCCCl` [BCNU, carmustine, reference compound], the median survival in test [1] (Group #3: 15 mg/kg BCNU ip on days 10, 12 and 14) is reported as 10.46 days. The compound `CC(=O)O[C@H]1C(=O)[C@@]2(C)[C@H]([C@H](OC(=O)c3ccccc3)[C@]3(O)C[C@H](OC(=O)[C@H](O)[C@@H](NC(=O)c4ccccc4)c4ccccc4)C(C)=C1C3(C)C)[C@]1(OC(C)=O)CO[C@@H]1C[C@@H]2O` [Taxol, paclitaxel, reference compound] had a median survival in test [2] (Group #3: 24 μmol/kg of Taxol iv on days 7, 9, 11 and 13) of 11.55 days. Take Motexafin Gadolinium [MGd]: the median survival was 12.90 days in test [2] (Group #2: 20 μmol/kg MGd iv on days 7, 9, 11 and 13); 10.04 days in test [1] (Group #2: 20 μmol/kg MGd iv on days 10, 12 and 14); 13.07 days in test [3] (Group #2: 20 μmol/kg MGd iv thrice at three day intervals after tumor established); 12.42 days with murine Lewis lung cancer. For the compound bleomycin [reference compound], the median survival in test [3] (Group #3: 10 units/kg bleomycin iv thrice at three day intervals after tumor established) was found to be 14.73 days.
